Experimental data as given in ChEMBL document CHEMBL1201862, “PubChem BioAssay data set” (2004).
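1) Cells in 96-well plates. 2) Compound, 48 h, 5 concentrations. 3) Linear interpolation between surrounding doses. 4) Unreached endpoint = highest concentration. At the GI50, growth is halved.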 Calls of active or inactive are those of the source. No stated cut-off is given here; in the data, active = GI50 up to about 1.1 µM and inactive = higher.

Assays:
Assay in all cases: DTP human tumour cell line panel, 48 h
[1] = tested on: DLD-1
[2] = tested on: DMS-114
[3] = tested on: DMS-273
[4] = tested on: KM-20L2
[5] = tested on: LXFL 529
[6] = tested on: M19-MEL
[7] = tested on: RXF 631
[8] = tested on: SNB-78
[9] = tested on: XF498

In the case of Cc1cccc2cc3cccc(C(=O)NCCN(C)C)c3nc12, the GI50 [1] is reported as 0.119 µM (active), the GI50 [2] is reported as 0.115 µM (active) and the GI50 [3] is reported as 0.0374 µM (active). For the same molecule, the GI50 [4] was 0.242 µM (active), the GI50 [5] was 0.275 µM (active) and the GI50 [6] was 0.157 µM (active). The GI50 [7] was 0.0538 µM (active) and the GI50 [8] was 0.614 µM (active).
With COC(=O)c1cccc2c3ccccc3c3ccccc3c12 the GI50 [1] was 65.9 µM (inactive), the GI50 [2] was 29.4 µM (inactive) and the GI50 [3] was 33.3 µM (inactive). For the same molecule, the GI50 [4] was 41.8 µM (inactive), the GI50 [5] was 28 µM (inactive) and the GI50 [6] was 51.2 µM (inactive).
With CC(=O)Nc1ccc(C2=N/C(=C\c3ccc(Cl)cc3)C(=O)O2)cc1 the GI50 [1] was 31.9 µM (inactive), the GI50 [3] was 66.5 µM (inactive) and the GI50 [4] was 84.7 µM (inactive). For the same molecule, the GI50 [5] was 24.4 µM (inactive), the GI50 [6] was 25.5 µM (inactive) and the GI50 [8] was > 100 µM (inactive). The GI50 [9] was 22 µM (inactive).
With CCOC(=O)Cc1c(Cc2[nH]c(C(=O)OCc3ccccc3)c(CC(=O)OCC)c2CC(=O)OCC)[nH]c(C(=O)OCc2ccccc2)c1CC(=O)OCC the GI50 [2] was > 100 µM (inactive), the GI50 [4] was > 100 µM (inactive) and the GI50 [5] was > 100 µM (inactive). The GI50 [6] was > 100 µM (inactive) and the GI50 [8] was > 100 µM (inactive).
In the case of NC(=O)NCc1c(C(N)=O)ncn1Cc1ccccc1, the GI50 [1] is reported as > 100 µM (inactive), the GI50 [2] is reported as > 100 µM (inactive) and the GI50 [3] is reported as > 100 µM (inactive). The GI50 [4] was > 100 µM (inactive), the GI50 [5] was > 100 µM (inactive) and the GI50 [6] was > 100 µM (inactive). The GI50 [8] was > 100 µM (inactive) and the GI50 [9] was > 100 µM (inactive).
With S=C1NCCN1 the GI50 [1] was > 100 µM (inactive), the GI50 [2] was > 100 µM (inactive) and the GI50 [3] was > 100 µM (inactive). The GI50 [4] was > 100 µM (inactive), the GI50 [5] was > 100 µM (inactive) and the GI50 [6] was > 100 µM (inactive). The GI50 [8] was > 100 µM (inactive) and the GI50 [9] was > 100 µM (inactive).
In the case of COC(=O)C1=C(C)N(NC(=O)c2ccccc2)C(C)(O)C12CCOC2=O (stereo unspecified), the GI50 [1] is reported as > 100 µM (inactive), the GI50 [2] is reported as > 100 µM (inactive) and the GI50 [3] is reported as > 100 µM (inactive). For the same molecule, the GI50 [4] was > 100 µM (inactive), the GI50 [5] was > 100 µM (inactive) and the GI50 [8] was > 100 µM (inactive). For the same molecule, the GI50 [9] was > 100 µM (inactive).
In the case of COc1ccc(C(=O)C(c2ccc(OC)cc2)C2(O)C(=O)Nc3ccccc32)cc1 (stereo unspecified), the GI50 [1] is reported as > 100 µM (inactive), the GI50 [3] is reported as > 100 µM (inactive) and the GI50 [4] is reported as > 100 µM (inactive). For the same molecule, the GI50 [5] was > 100 µM (inactive), the GI50 [6] was > 100 µM (inactive) and the GI50 [7] was > 100 µM (inactive). The GI50 [8] was > 100 µM (inactive) and the GI50 [9] was > 100 µM (inactive).
For C=C1CC[C@@H]2C(C)(C)C(O)CCC2(C)C1COc1ccc2ccc(=O)oc2c1 (stereo partly specified), the GI50 [1] was 15.7 µM (inactive), the GI50 [2] was 15 µM (inactive) and the GI50 [3] was 14.3 µM (inactive). For the same molecule, the GI50 [4] was 19.1 µM (inactive), the GI50 [5] was 11.2 µM (inactive) and the GI50 [6] was 18.4 µM (inactive). The GI50 [8] was 19.4 µM (inactive) and the GI50 [9] was 16 µM (inactive).
For Cc1cccc(C(C)(C)C)c1NC(=O)CCl, the GI50 [1] was > 100 µM (inactive), the GI50 [3] was > 100 µM (inactive) and the GI50 [4] was > 100 µM (inactive). The GI50 [5] was > 100 µM (inactive), the GI50 [6] was > 100 µM (inactive) and the GI50 [7] was > 100 µM (inactive). The GI50 [8] was > 100 µM (inactive) and the GI50 [9] was > 100 µM (inactive).
For COC(=O)CC1NC(=O)C1C1(C)OCCO1 (stereo unspecified), the GI50 [1] was > 100 µM (inactive), the GI50 [2] was > 100 µM (inactive) and the GI50 [3] was > 100 µM (inactive). The GI50 [4] was > 100 µM (inactive), the GI50 [5] was > 100 µM (inactive) and the GI50 [6] was > 100 µM (inactive). The GI50 [9] was > 100 µM (inactive).
For CSc1cc(C(C)(C)C)ccc1C(O)c1ccc(C(C)(C)C)cc1SC, the GI50 [1] was 8.36 µM (inactive), the GI50 [2] was 7.69 µM (inactive) and the GI50 [3] was 10.9 µM (inactive). For the same molecule, the GI50 [4] was 11 µM (inactive), the GI50 [5] was 13.7 µM (inactive) and the GI50 [6] was 10.2 µM (inactive). The GI50 [8] was 15.6 µM (inactive) and the GI50 [9] was 10.8 µM (inactive).
In the case of CCc1cccc(C)c1NC(=O)C(=O)CC(=O)c1ccc(Cl)s1, the GI50 [1] is reported as > 100 µM (inactive), the GI50 [4] is reported as > 100 µM (inactive) and the GI50 [5] is reported as > 100 µM (inactive). For the same molecule, the GI50 [6] was > 100 µM (inactive), the GI50 [7] was > 100 µM (inactive) and the GI50 [8] was > 100 µM (inactive).
In the case of C#CCN(N=O)C(=O)NCCCCC(NC(C)=O)C(=O)NCc1ccccc1 (stereo unspecified), the GI50 [1] is reported as > 100 µM (inactive), the GI50 [2] is reported as > 100 µM (inactive) and the GI50 [4] is reported as > 100 µM (inactive). The GI50 [5] was > 100 µM (inactive), the GI50 [6] was > 100 µM (inactive) and the GI50 [8] was > 100 µM (inactive). The GI50 [9] was 2.68 µM (inactive).
